Data: patent US20250382344A1, “Soluble GLP1/GIP/NPY2 Receptor Triple Agonists” (Boehringer Ingelheim International GmH, priority 2024, published 2025)
Like-named read-outs stand apart in the source and are kept apart here.

Assays:
hGLP1R = target: T1, hGLP1R (Homo sapiens, UniProt P43220); experiment: hGLP1R CreLuc assay in 0.5% and 100% plasma (HEK-293 CRE-luciferase reporter cells); format: cell-based; conditions: HEK-293 reporter cells
T1 construct: expressed in transfected cells; host or cells: HEK-293 CRE-luciferase reporter cells

hGIPR = target: T2, hGIPR (Homo sapiens, UniProt P48546); experiment: hGIPR CreLuc assay in 0.5% and 100% plasma (CHO CRE-luciferase reporter cells); format: cell-based
T2 construct: expressed in transfected cells; host or cells: CHO CRE-luciferase reporter cells
T2 sequence (P48546 22-466): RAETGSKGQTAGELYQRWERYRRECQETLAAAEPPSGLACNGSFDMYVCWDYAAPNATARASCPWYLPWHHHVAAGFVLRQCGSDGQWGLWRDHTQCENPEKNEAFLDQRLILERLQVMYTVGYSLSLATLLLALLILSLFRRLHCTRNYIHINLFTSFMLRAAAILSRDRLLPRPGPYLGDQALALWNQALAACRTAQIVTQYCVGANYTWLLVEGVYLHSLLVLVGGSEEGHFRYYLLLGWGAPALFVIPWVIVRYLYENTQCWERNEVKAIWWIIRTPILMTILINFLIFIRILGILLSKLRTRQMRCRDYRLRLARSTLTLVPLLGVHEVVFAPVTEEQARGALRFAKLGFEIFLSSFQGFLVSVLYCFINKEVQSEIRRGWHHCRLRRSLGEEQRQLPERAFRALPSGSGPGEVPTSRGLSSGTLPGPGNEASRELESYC

[1] = Solubility in 0.1 M phosphate buffer at pH 7; format: physicochemical; conditions: 0.1 M phosphate buffer at pH 7, 10 mg/mL final peptide concentration, shaking 2 hours at room temperature, peptides as TFA-salts; measured sample pH 6.5-7.0
[2] = 0.5% human plasma, read-out: hGLP1R 0.5% hP
[3] = 100% human plasma, read-out: hGLP1R 100% hP
[4] = 0.5% human plasma, read-out: hGIPR 0.5% hP
[5] = 100% human plasma, read-out: hGIPR 100% hP

T1 sequence (P43220 24-463): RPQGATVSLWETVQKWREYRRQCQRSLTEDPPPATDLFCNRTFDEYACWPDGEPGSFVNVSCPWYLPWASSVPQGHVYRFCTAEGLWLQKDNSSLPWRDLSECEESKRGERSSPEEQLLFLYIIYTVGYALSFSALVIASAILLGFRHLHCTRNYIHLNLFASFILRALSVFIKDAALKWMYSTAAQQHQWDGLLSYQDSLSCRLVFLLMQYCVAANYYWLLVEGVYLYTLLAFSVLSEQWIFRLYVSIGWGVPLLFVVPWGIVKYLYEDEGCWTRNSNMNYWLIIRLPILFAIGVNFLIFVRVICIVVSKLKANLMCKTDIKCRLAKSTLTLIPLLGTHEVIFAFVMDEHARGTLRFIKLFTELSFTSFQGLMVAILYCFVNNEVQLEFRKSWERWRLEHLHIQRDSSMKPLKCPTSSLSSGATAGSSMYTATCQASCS

EC50 (hGLP1R; [2]) [pM]	EC50 (hGLP1R; [3]) [pM]	EC50 (hGIPR; [4]) [pM]	solubility at 2 h [1] [µg/mL]	EC50 (hGIPR; [5]) [pM]	SMILES
900	14500	200	4300	–	CC[C@H](C)[C@H](NC(=O)[C@H](CC(C)C)NC(=O)[C@H](Cc1c[nH]cn1)NC(=O)[C@H](CCCNC(=N)N)NC(=O)[C@@H](NC(=O)[C@H](Cc1ccccc1)NC(=O)[C@H](C)NC(=O)C(C)(C)NC(=O)[C@H](CCC(N)=O)NC(=O)[C@H](C)NC(=O)[C@H](CCC(N)=O)NC(=O)[C@H](CCC(N)=O)NC(=O)[C@H](CCC(=O)O)NC(=O)[C@H](CC(C)C)NC(=O)C(C)(C)NC(=O)[C@@H](NC(=O)[C@H](CO)NC(=O)[C@H](Cc1ccc(O)cc1)NC(=O)[C@H](CC(=O)O)NC(=O)[C@H](CO)NC(=O)[C@@H](NC(=O)[C@H](Cc1ccccc1)NC(=O)[C@@H](NC(=O)CNC(=O)[C@H](CCC(=O)O)NC(=O)C(C)(C)NC(=O)[C@@H](N)Cc1ccc(O)cc1)[C@@H](C)O)[C@@H](C)O)[C@@H](C)CC)C(C)C)C(=O)N[C@@H](CC(N)=O)C(=O)N[C@@H](CCCCNC(=O)CC[C@H](NC(=O)CC[C@H](NC(=O)CC[C@H](NC(=O)CC[C@H](NC(=O)CC[C@H](NC(=O)CCCCCCCCCCCCCCCCC(=O)O)C(=O)O)C(=O)O)C(=O)O)C(=O)O)C(=O)O)C(=O)NC(C)(C)C(=O)N[C@H](C(=O)N[C@@H](CCCNC(=N)N)C(=O)N[C@@H](CCC(N)=O)C(=O)N[C@@H](CCCNC(=N)N)C(=O)N[C@@H](Cc1ccc(O)cc1)C(N)=O)[C@@H](C)O [Compound 42, Y-Aib-E-G-T-F-T-S-D-Y-S-I-Aib-L-E-Q-Q-A-Q-Aib-A-F-V-R-H-L-I-N-K(1,3)-Aib-T-R-Q-R-Y-NH2.C18DA-gGlu-gGlu-gGlu-gGlu-gGlu(1,2)]
–	900	300	4700	–	CC[C@H](C)[C@H](NC(=O)[C@H](CC(C)C)NC(=O)[C@H](Cc1c[nH]cn1)NC(=O)[C@H](CCCNC(=N)N)NC(=O)[C@@H](NC(=O)[C@H](Cc1ccccc1)NC(=O)[C@H](CCC(=O)O)NC(=O)C(C)(C)NC(=O)[C@H](CCC(N)=O)NC(=O)[C@H](C)NC(=O)[C@H](CCC(N)=O)NC(=O)[C@H](CCCCN)NC(=O)[C@H](CCC(=O)O)NC(=O)[C@H](CC(C)C)NC(=O)C(C)(C)NC(=O)[C@@H](NC(=O)[C@H](CO)NC(=O)[C@H](Cc1ccc(O)cc1)NC(=O)[C@H](CC(=O)O)NC(=O)[C@H](CO)NC(=O)[C@@H](NC(=O)[C@H](Cc1ccccc1)NC(=O)[C@@H](NC(=O)CNC(=O)[C@H](CCC(=O)O)NC(=O)C(C)(C)NC(=O)[C@@H](N)Cc1ccc(O)cc1)[C@@H](C)O)[C@@H](C)O)[C@@H](C)CC)C(C)C)C(=O)N[C@@H](CC(N)=O)C(=O)N[C@@H](CCCCNC(=O)[C@@H](N)CCCCNC(=O)CC[C@H](NC(=O)CC[C@H](NC(=O)CC[C@H](NC(=O)CC[C@H](NC(=O)CC[C@H](NC(=O)CC[C@H](NC(=O)CC[C@H](NC(=O)CCCCCCCCCCCCCCCCC(=O)O)C(=O)O)C(=O)O)C(=O)O)C(=O)O)C(=O)O)C(=O)O)C(=O)O)C(=O)NC(C)(C)C(=O)N[C@H](C(=O)N[C@@H](CCCNC(=N)N)C(=O)N[C@@H](CCC(N)=O)C(=O)N[C@@H](CCCNC(=N)N)C(=O)N[C@@H](Cc1ccc(O)cc1)C(N)=O)[C@@H](C)O [Compound 30, Y-Aib-E-G-T-F-T-S-D-Y-S-I-Aib-L-E-K-Q-A-Q-Aib-E-F-V-R-H-L-I-N-K(1,3)-Aib-T-R-Q-R-Y-NH2.C18DA-gGlu-gGlu-gGlu-gGlu-gGlu-gGlu-gGlu-eLys(1,2)]
600	3000	100	4300	2800	CC[C@H](C)[C@H](NC(=O)[C@H](CC(C)C)NC(=O)[C@H](Cc1c[nH]cn1)NC(=O)[C@H](CCCNC(=N)N)NC(=O)[C@@H](NC(=O)[C@H](Cc1ccccc1)NC(=O)[C@H](C)NC(=O)C(C)(C)NC(=O)[C@H](CCC(N)=O)NC(=O)[C@H](C)NC(=O)[C@H](CCC(N)=O)NC(=O)[C@H](CCCCN)NC(=O)[C@H](CCC(=O)O)NC(=O)[C@H](CC(C)C)NC(=O)C(C)(C)NC(=O)[C@@H](NC(=O)[C@H](CO)NC(=O)[C@H](Cc1ccc(O)cc1)NC(=O)[C@H](CC(=O)O)NC(=O)[C@H](CO)NC(=O)[C@@H](NC(=O)[C@H](Cc1ccccc1)NC(=O)[C@@H](NC(=O)CNC(=O)[C@H](CCC(=O)O)NC(=O)C(C)(C)NC(=O)[C@@H](N)Cc1ccc(O)cc1)[C@@H](C)O)[C@@H](C)O)[C@@H](C)CC)C(C)C)C(=O)N[C@@H](CC(N)=O)C(=O)N[C@@H](CCCCNC(=O)[C@@H](N)CCCCNC(=O)CC[C@H](NC(=O)CC[C@H](NC(=O)CC[C@H](NC(=O)CC[C@H](NC(=O)CC[C@H](NC(=O)CC[C@H](NC(=O)CCCCCCCCCCCCCCCCC(=O)O)C(=O)O)C(=O)O)C(=O)O)C(=O)O)C(=O)O)C(=O)O)C(=O)NC(C)(C)C(=O)N[C@H](C(=O)N[C@@H](CCCNC(=N)N)C(=O)N[C@@H](CCC(N)=O)C(=O)N(C)[C@@H](CCCNC(=N)N)C(=O)N[C@@H](Cc1ccc(O)cc1)C(N)=O)[C@@H](C)O [Compound 43, Y-Aib-E-G-T-F-T-S-D-Y-S-I-Aib-L-E-K-Q-A-Q-Aib-A-F-V-R-H-L-I-N-K(1,3)-Aib-T-R-Q-NMeR-Y-NH2.C18DA-gGlu-gGlu-gGlu-gGlu-gGlu-gGlu-eLys(1,2)]
100	600	100	8800	1700	CC[C@H](C)[C@H](NC(=O)[C@H](CC(C)C)NC(=O)[C@H](Cc1c[nH]cn1)NC(=O)[C@H](CCCNC(=N)N)NC(=O)[C@@H](NC(=O)[C@H](Cc1ccccc1)NC(=O)[C@H](C)NC(=O)C(C)(C)NC(=O)[C@H](CCC(N)=O)NC(=O)[C@H](C)NC(=O)[C@H](CCC(N)=O)NC(=O)[C@H](CCCCN)NC(=O)[C@H](CC(=O)O)NC(=O)[C@H](CC(C)C)NC(=O)[C@](C)(CC(C)C)NC(=O)[C@@H](NC(=O)[C@H](CO)NC(=O)[C@H](Cc1ccc(O)cc1)NC(=O)[C@H](CC(=O)O)NC(=O)[C@H](CO)NC(=O)[C@@H](NC(=O)[C@H](Cc1ccccc1)NC(=O)[C@@H](NC(=O)CNC(=O)[C@H](CCC(=O)O)NC(=O)C(C)(C)NC(=O)[C@@H](N)Cc1ccc(O)cc1)[C@@H](C)O)[C@@H](C)O)[C@@H](C)CC)C(C)C)C(=O)N[C@@H](CC(N)=O)C(=O)N[C@@H](CCCCNC(=O)[C@@H](N)CCCCNC(=O)CC[C@H](NC(=O)CC[C@H](NC(=O)CC[C@H](NC(=O)CC[C@H](NC(=O)CC[C@H](NC(=O)CC[C@H](NC(=O)CCCCCCCCCCCCCCCCC(=O)O)C(=O)O)C(=O)O)C(=O)O)C(=O)O)C(=O)O)C(=O)O)C(=O)NC(C)(C)C(=O)N[C@H](C(=O)N[C@@H](CCCNC(=N)N)C(=O)N[C@@H](CCC(N)=O)C(=O)N[C@@H](CCCNC(=N)N)C(=O)N[C@@H](Cc1ccc(O)cc1)C(N)=O)[C@@H](C)O [Compound 67, Y-Aib-E-G-T-F-T-S-D-Y-S-I-aMeL-L-D-K-Q-A-Q-Aib-A-F-V-R-H-L-I-N-K(1,3)-Aib-T-R-Q-R-Y-NH2.C18DA-gGlu-gGlu-gGlu-gGlu-gGlu-gGlu-eLys(1,2)]
500	–	200	9400	–	CC[C@H](C)[C@H](NC(=O)[C@H](CC(C)C)NC(=O)[C@H](Cc1c[nH]cn1)NC(=O)[C@H](CCCNC(=N)N)NC(=O)[C@@H](NC(=O)[C@H](Cc1ccccc1)NC(=O)[C@H](C)NC(=O)C(C)(C)NC(=O)[C@H](CCC(N)=O)NC(=O)[C@H](C)NC(=O)[C@H](CCC(N)=O)NC(=O)[C@H](CCC(N)=O)NC(=O)[C@H](CCC(=O)O)NC(=O)[C@H](CC(C)C)NC(=O)C(C)(C)NC(=O)[C@@H](NC(=O)[C@H](CO)NC(=O)[C@H](Cc1ccc(O)cc1)NC(=O)[C@H](CC(=O)O)NC(=O)[C@H](CO)NC(=O)[C@@H](NC(=O)[C@H](Cc1ccccc1)NC(=O)[C@@H](NC(=O)CNC(=O)[C@H](CCC(=O)O)NC(=O)C(C)(C)NC(=O)[C@@H](N)Cc1ccc(O)cc1)[C@@H](C)O)[C@@H](C)O)[C@@H](C)CC)C(C)C)C(=O)N[C@@H](CC(N)=O)C(=O)N[C@@H](CCCCNC(=O)[C@@H](N)CCCCNC(=O)CC[C@H](NC(=O)CC[C@H](NC(=O)CC[C@H](NC(=O)CC[C@H](NC(=O)CC[C@H](NC(=O)CC[C@H](NC(=O)CCCCCCCCCCCCCCCCC(=O)O)C(=O)O)C(=O)O)C(=O)O)C(=O)O)C(=O)O)C(=O)O)C(=O)NC(C)(C)C(=O)N[C@H](C(=O)N[C@@H](CCCNC(=N)N)C(=O)N[C@@H](CCC(N)=O)C(=O)N[C@@H](CCCNC(=N)N)C(=O)N[C@@H](Cc1ccc(O)cc1)C(N)=O)[C@@H](C)O [Compound 23, Y-Aib-E-G-T-F-T-S-D-Y-S-I-Aib-L-E-Q-Q-A-Q-Aib-A-F-V-R-H-L-I-N-K(1,3)-Aib-T-R-Q-R-Y-NH2.C18DA-gGlu-gGlu-gGlu-gGlu-gGlu-gGlu-eLys(1,2)]
